Measurements reported in publication PMC6269587 (Iranian Journal of Pharmaceutical Research : IJPR, 2018).

Assays:
[1] = DPPH radical scavenging activity (antioxidant activity); settings: DPPH method, 30 min, 517 nm, triplicate
Description: The DPPH method is based on the free radical scavenging activity ([17]). briefly, 2 mL of DPPH solution in methanol (4×10^-5 g/mL) was prepared and added to 1 mL of different concentrations of sample solution in methanol (0.1, 0.5 and 1.0 mg/mL). The mixture was kept in the dark for 30 min at room temperature. The antioxidant activity was measured by Shimadzu, UV/VIS model 160A spectrophotometer at 517 nm.
All the measurements were done in triplicate. The IC50 values were calculated as means ± SD and butylated hydroxytoluene (BHT) was used as positive control.

[2] = target: T1, Acetylcholinesterase (AChE) (Homo sapiens, UniProt P22303); assay: biochemical; settings: for AChE Inhibitory IC50 ± SD: Ellman's method, 412 nm, 25 °C, pH 8.0
T1 construct: purchased Sigma (Germany)
Description: AChE inhibitory effect of petroleum ether, chloroform, ethyl acetate, and methanol fractions were carried out by the Ellman′s method ([16]).

[3] = test system: triple transgenic mice of Alzheimer's disease model; settings: cited from earlier work
brain cells = settings: mice; cited from earlier work

T1 sequence (P22303 32-614, species assumed): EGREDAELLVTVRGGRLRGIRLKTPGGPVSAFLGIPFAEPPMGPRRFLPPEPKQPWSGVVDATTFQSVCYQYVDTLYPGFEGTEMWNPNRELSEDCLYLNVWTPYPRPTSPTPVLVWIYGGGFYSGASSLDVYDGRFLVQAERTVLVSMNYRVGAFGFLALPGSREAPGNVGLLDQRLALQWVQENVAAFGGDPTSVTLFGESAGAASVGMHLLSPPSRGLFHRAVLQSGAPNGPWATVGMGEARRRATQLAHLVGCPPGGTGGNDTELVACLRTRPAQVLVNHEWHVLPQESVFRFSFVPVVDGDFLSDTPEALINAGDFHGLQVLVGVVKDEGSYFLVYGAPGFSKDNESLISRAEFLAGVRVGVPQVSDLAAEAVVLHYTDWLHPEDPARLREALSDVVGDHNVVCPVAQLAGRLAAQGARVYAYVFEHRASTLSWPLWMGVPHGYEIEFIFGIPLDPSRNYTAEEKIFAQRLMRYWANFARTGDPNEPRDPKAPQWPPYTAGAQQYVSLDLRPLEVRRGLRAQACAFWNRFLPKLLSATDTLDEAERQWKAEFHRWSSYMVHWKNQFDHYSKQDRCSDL

| SMILES | Antioxidant Activity IC50 ± SD [1] | IC50 [2] | effect on performance, emotional and cognitive behavior [3] | neuroprotective effect (brain cells) | AChE Inhibitory IC50 ± SD [2] |
| --- | --- | --- | --- | --- | --- |
| O=c1c(O[C@@H]2O[C@H](CO)[C@@H](O)[C@H](O)[C@H]2O)c(-c2ccc(O)cc2)oc2cc(O)cc(O)c12 [Astragalin, astragalin] | 26.92 ± 3.5 µg/mL | 162 µM |  |  |  |
| Cc1cc(C(C)(C)C)c(O)c(C(C)(C)C)c1 [BHT, butylated hydroxytoluene, reference compound] | 19.50 ± 2.8 µg/mL |  |  |  |  |
| O=C(O)/C=C/c1ccc(O)c(O)c1 [Caffeic acid] | 11.41 ± 6.0 µg/mL | 66.9 µM |  |  |  |
| O=c1c(O)c(-c2ccc(O)c(O)c2)oc2cc(O)cc(O)c12 [Quercetin, quercetin] | 10.24 ± 1.3 µg/mL | 220 µM | protective effects on performance, emotional and cognitive behavior have been confirmed | strong protective effects of this compound on the brain cells |  |
| O=C(O)c1ccccc1O [Salicylic acid] | 114.57 ± 1.0 µg/mL |  |  |  | - |
| O=C(O)C=Cc1ccc(O)cc1 [p-Coumaric acid] | 110.33 ± 1.2 µg/mL |  |  |  | - |
